# Earlier results as cited in patent publication US20120015404A1, “GENE CLUSTER FOR THU[…]” (HUAZHONG AGRICULTURAL UNIVERSITY, priority 2009, published 2012).
# How the values were obtained:
# Anastrepha ludens = conditions: third stage larvae
# larvae of housefly = larvae of housefly take in thuringiensin
# [1] = purified thuringiensin
# A. serpentine = conditions: third stage larvae
# A. obliqua = conditions: third stage larvae
# [2] = tested on: larvae of Galleria mellonella
# [3] = low concentration, Helicoverpa armigera
SMILES,acute lethal effect (Helicoverpa armigera; [3]),effect on growth and development (Helicoverpa armigera; [3]),"weight of the neonate larvae (Helicoverpa armigera; lowest testing concentration, 12 days)",activity compared with E605 (Pieris brassicae),LC50 (Anastrepha ludens),half lethal dose (larvae of housefly),mutagenicity [1],LC50 (A. serpentine),LC50 (A. obliqua),"toxicity relative to DDT ([2]; injected larvae of Galleria mellonella, times of that of DDT)","half lethal dose ([2]; larvae of Galleria mellonella, injected)",activity compared with E605 (Plutella maculipennis),toxicity compared with E605 (Aedes aegypti),activity compared with E605 (Phaedon cochleariae)
Nc1ncnc2c1ncn2[C@@H]1O[C@H](CO[C@H]2[C@H](O)[C@@H](O)[C@@H](O[C@@H](C(=O)O)[C@H](O)[C@H](OP(=O)(O)O)[C@H](O)C(=O)O)O[C@@H]2CO)[C@@H](O)[C@H]1O [thuringiensin A],no acute lethal effect,unrecoverable inhibiting effect,no apparent increase,–,–,–,–,–,–,–,–,–,–,–
Nc1ncnc2c1ncn2[C@@H]1O[C@H](CO[C@H]2[C@H](O)[C@@H](O)[C@@H](O[C@@H](C(=O)O)[C@H](O)[C@H](OP(=O)(O)O)[C@H](O)C(=O)O)O[C@@H]2CO)[C@@H](O)[C@H]1O [thuringiensin],–,–,–,more than E605,0.641 μg/cm^2,0.5 µg/mL,no mutagenicity,0.408 μg/cm^2,0.512 μg/cm^2,1000 times,0.005 µg/g,more than E605,less than E605,more than E605
